ChEMBL document CHEMBL4387741, “Optimization of novel reversible Bruton's tyrosine kinase inhibitors identified using Tethering-fragment-based screens” (Bioorg Med Chem, 2019)
In brackets after ≈: the same amount, converted by molar mass.

Experiments:
[1] = test system: Tyrosine-protein kinase ABL1 (Homo sapiens), P00519 [F317L]; experiment: Inhibition of human non-phosphorylated ABL1 F317L mutant (S229 to K512 residues) expressed in mammalian expression system at 1 uM by Kinomescan method relative to control
[2] = biological target: Ephrin type-A receptor 5 (Homo sapiens) (UniProt P54756); experiment: Inhibition of wild-type human partial length EPHA5 (T627 to V930 residues) expressed in bacterial expression system at 1 uM by Kinomescan method relative to control
[3] = Aqueous kinetic solubility of the compound at pH 6.8 by shake flask assay; type: physicochemical; conditions: read-out: Kinetic_solubility
[4] = test system: Epidermal growth factor receptor (Homo sapiens), P00533 [UNDEFINED MUTATION]; experiment: Inhibition of human partial length EGFR L747-S752del/P753S mutant expressed in bacterial expression system at 1 uM by Kinomescan method relative to control
[5] = biological target: Vascular endothelial growth factor receptor 2 (Homo sapiens) (UniProt P35968); experiment: Inhibition of wild-type human partial length VEGFR2 (R787 to P1253 residues) expressed in mammalian expression system at 1 uM by Kinomescan method relative to control
[6] = biological target: Tyrosine-protein kinase Tec (Homo sapiens) (UniProt P42680); experiment: Inhibition of wild-type human partial length TEC (L341 to D620 residues) expressed in bacterial expression system at 1 uM by Kinomescan method relative to control
[7] = biological target: Dual specificity protein kinase CLK3 (Homo sapiens) (UniProt P49761); experiment: Inhibition of wild-type human full length CLK3 (M1 to R490 residues) expressed in bacterial expression system at 1 uM by Kinomescan method relative to control
[8] = biological target: Casein kinase II subunit alpha' (Homo sapiens) (UniProt P19784); experiment: Inhibition of wild-type human full length CSNK2A2 (M1 to R350 residues) expressed in mammalian expression system at 1 uM by Kinomescan method relative to control
[9] = biological target: Mitogen-activated protein kinase kinase kinase 1 (Homo sapiens) (UniProt Q13233); experiment: Inhibition of wild-type human partial length MAP3K1 (L1202 to W1512 residues) expressed in mammalian expression system at 1 uM by Kinomescan method relative to control
[10] = biological target: Serine/threonine-protein kinase Nek9 (Homo sapiens) (UniProt Q8TD19); experiment: Inhibition of wild-type human partial length NEK9 (P32 to R328 residues) expressed in bacterial expression system at 1 uM by Kinomescan method relative to control
[11] = biological target: Vascular endothelial growth factor receptor 3 (Homo sapiens) (UniProt P35916); experiment: Inhibition of wild-type human partial length FLT4 (E821 to E1196 residues) expressed in bacterial expression system at 1 uM by Kinomescan method relative to control
[12] = biological target: Epithelial discoidin domain-containing receptor 1 (Homo sapiens) (UniProt Q08345); experiment: Inhibition of wild-type human partial length DDR1 (R565 to V876 residues) expressed in bacterial expression system at 1 uM by Kinomescan method relative to control
[13] = biological target: Homeodomain-interacting protein kinase 2 (Homo sapiens) (UniProt Q9H2X6); experiment: Inhibition of wild-type human partial length HIPK2 (M153 to S564 residues) expressed in mammalian expression system at 1 uM by Kinomescan method relative to control
[14] = biological target: Serine/threonine-protein kinase 17B (Homo sapiens) (UniProt O94768); experiment: Inhibition of wild-type human full length DRAK2 (M1 to C372 residues) expressed in bacterial expression system at 1 uM by Kinomescan method relative to control
[15] = biological target: Mitogen-activated protein kinase 7 (Homo sapiens) (UniProt Q13164); experiment: Inhibition of wild-type human partial length ERK5 (M1 to A409 residues) expressed in bacterial expression system at 10 uM by Kinomescan method relative to control
[16] = biological target: Serine/threonine-protein kinase pim-2 (Homo sapiens) (UniProt Q9P1W9); experiment: Inhibition of wild-type human partial length PIM2 (M1 to E291 residues) expressed in bacterial expression system at 10 uM by Kinomescan method relative to control
[17] = biological target: Cyclin-dependent kinase 19 (Homo sapiens) (UniProt Q9BWU1); experiment: Inhibition of wild-type human partial length CDK11 (M1 to N360 residues) expressed in bacterial expression system at 10 uM by Kinomescan method relative to control
[18] = biological target: Serine/threonine-protein kinase WNK3 (Homo sapiens) (UniProt Q9BYP7); experiment: Inhibition of wild-type human partial length WNK3 (M1 to D434 residues) expressed in mammalian expression system at 10 uM by Kinomescan method relative to control
[19] = biological target: Ribosomal protein S6 kinase alpha-2 (Homo sapiens) (UniProt Q15349); experiment: Inhibition of wild-type human partial length C-terminal RSK3 kinase domain 2 (V403 to K700 residues) expressed in bacterial expression system at 10 uM by Kinomescan method relative to control
[20] = test system: Receptor-type tyrosine-protein kinase FLT3 (Homo sapiens), P36888 [D835V]; experiment: Inhibition of human partial length FLT3 D835V mutant (V592 to Y969 residues) expressed in bacterial expression system at 10 uM by Kinomescan method relative to control
[21] = biological target: Serine/threonine-protein kinase Chk2 (Homo sapiens) (UniProt O96017); experiment: Inhibition of wild-type human partial length CHEK2 (S253 to E574 residues) expressed in bacterial expression system at 10 uM by Kinomescan method relative to control
[22] = biological target: Mitogen-activated protein kinase kinase kinase 10 (Homo sapiens) (UniProt Q02779); experiment: Inhibition of wild-type human partial length MLK2 (V52 to W380 residues) expressed in bacterial expression system at 10 uM by Kinomescan method relative to control
[23] = biological target: Citron Rho-interacting kinase (Homo sapiens) (UniProt O14578); experiment: Inhibition of wild-type human partial length CIT (M68 to E432 residues) expressed in bacterial expression system at 10 uM by Kinomescan method relative to control
[24] = biological target: Phosphorylase b kinase gamma catalytic chain, skeletal muscle/heart isoform (Homo sapiens) (UniProt Q16816); experiment: Inhibition of wild-type human full length PHKG1 (M1 to Y387 residues) expressed in bacterial expression system at 10 uM by Kinomescan method relative to control
[25] = biological target: Phosphatidylinositol 4,5-bisphosphate 3-kinase catalytic subunit gamma isoform (Homo sapiens) (UniProt P48736); experiment: Inhibition of wild-type human partial length PIK3CG (S144 to A1102 residues) expressed in mammalian expression system at 10 uM by Kinomescan method relative to control
[26] = biological target: LIM domain kinase 2 (Homo sapiens) (UniProt P53671); experiment: Inhibition of wild-type human full length LIMK2 (M1 to P638 residues) expressed in bacterial expression system at 10 uM by Kinomescan method relative to control
[27] = biological target: Mitogen-activated protein kinase 4 (Homo sapiens) (UniProt P31152); experiment: Inhibition of wild-type human partial length ERK4 (M1 to L365 residues) expressed in bacterial expression system at 10 uM by Kinomescan method relative to control

## O=C(Nc1cccc([C@@H]2CN(c3ncnc4[nH]ccc34)CCN2CCO)c1)Nc1c(F)cccc1N1CCCC1
[1]
  inhibition: 100%
[2]
  inhibition: 92%
[3]
  solubility kinetic: 8 µg/mL (≈ 14.7 µM)
[4]
  inhibition: 100%
[5]
  inhibition: 30%
[6]
  inhibition: 45%
[7]
  inhibition: 94%
[8]
  inhibition: 81%
[9]
  inhibition: 70%
[10]
  inhibition: 95%
[11]
  inhibition: 16%
[12]
  inhibition: 82%
[13]
  inhibition: 100%
[14]
  inhibition: 73%

## O=C(Nc1cccc([C@H]2CCCN(c3ncnc4[nH]ccc34)C2)c1)Nc1ccccc1N1CCCC1
[15]
  inhibition: 100%
[16]
  inhibition: 100%
[17]
  inhibition: 37%
[18]
  inhibition: 61%
[19]
  inhibition: 66%
[20]
  inhibition: 4.3%
[21]
  inhibition: 47%
[22]
  inhibition: 100%
[23]
  inhibition: 0.2%
[24]
  inhibition: 91%
[25]
  inhibition: 75%
[26]
  inhibition: 100%
[27]
  inhibition: 100%
